Earlier results in patent US20200016107A1, “COMPOSITION AND METHOD FOR THE TOPICAL TREATMENT OF SEVERE ACNE” (CENTRO INTTERNACIONAL DE COSMIATRÍA, S.A.P.I. DE C.V., priority 2017, published 2020).

Tested on: sebaceous gland
Details: oral administration

**Q.** Which results are given for CC1=C(/C=C/C(C)=C/C=C/C(C)=C\C(=O)O)C(C)(C)CCC1 [13-cis-retinoic acid]?
**A.** effect on sebaceous gland secretion: almost completely suppresses this secretion; patients with marked improvement: ~100%
